One may read the IC50 as the concentration that gives 50% inhibition.

Read-outs that look alike come from different tables or passages of the source.

Assay [1] has as its system human low density lipoproteins (LDLs). The assay can be described thus: protective activity against oxidation of human LDLs induced by copper sulphate (TBARS determination). It counts as biochemical. The settings on record: copper sulphate 5 μM, 3 hours at 37° C., read-out: IC50, protection against the oxidation of LDLs. The procedure:
The dose-effect relationship of those compounds was compared with that of probucol and a soluble analogue of vitamin E, trolox.
The anti-oxidant activity of the compounds was measured according to the method of Wallin et al. (Analytical Biochemistry, 1993, 208, 10-15).
Human LDLs are incubated for 3 hours at 37° C. in the presence of an oxidising agent, copper sulphate at a concentration of 5 μM, and of the compound to be tested at concentrations ranging from 10^-8 M to 2.5×10^-6 M. A non-oxidised control (LDLs only) and an oxidised control (LDLs plus copper sulphate) are also included in each of the series of tests.
The products of the LDL oxidation reaction are quantified by the colorimetric determination of "thiobarbituric acid reactive substances" (TBARS).
The protective activity of the tested compounds is expressed by the IC50 value, which corresponds to the concentration of product required to inhibit by 50% the oxidation of LDLs observed in the absence of product. The IC50 value was calculated from the dose-response curve.

For assay [2], the system named is plasma lipids (triglycerides, total cholesterol). The assay can be described thus: hypolipaemic activity in vivo in a diet-induced model of combined hyperlipaemia in the hamster. Further details: species or system Golden Syrian hamster. The settings on record: Mesocricetus auratus, po, 168 h, 200 mg/kg/day per os, 1 week, hamsters on lipid-rich diet, versus control group, bezafibrate: mean ± sem of five experiments. The procedure:
The hypolipaemic activity of certain representative compounds of the invention was evaluated in vivo in a diet-induced model of combined hyperlipaemia in the hamster.
Golden Syrian hamsters are given a diet rich in lipids (standard diet+0.5% cholesterol+10% cocoa oil) for 3 weeks before the beginning of treatment. That diet induces hypercholesterolaemia and hypertriglyceridaemia.
The products are prepared in tragacanth gum and are administered per os by forced gastric feeding for 1 week at a dose of 200 mg/kg/day. Each product is tested on a group of 6 animals. A placebo group (control) and a group of animals treated with a reference product (bezafibrate at a dose of 200 mg/kg/day) are included in each experiment.
At the end of the treatment, the animals are anaesthetised with ether. Blood is removed by abdominal puncture and the triglycerides and total cholesterol in the serums are determined. Five independent experiments were carried out in accordance with that protocol in order to evaluate the hypolipaemic effect of thirteen compounds of this invention.
The results are shown in Table B. The effect of the treatment is expressed as a percentage variation by comparison with the control group, calculated from the means of the absolute values of triglycerides and of total cholesterol. A negative value thus reflects a hypolipaemic effect of the treatment indicated. The values shown for bezafibrate represent the mean values (±sem) of five experiments.

Setting [3] is: read-out: Total cholesterol (% variation/control).
[4] abbreviates: read-out: Triglycerides (% variation/control).

For the compound `CC(C)(CCCOc1ccc(CCOc2cc(C(C)(C)C)c(O)c(C(C)(C)C)c2)cc1)C(=O)O` [Example 16, 2,2-dimethyl-5-{4-[2-(4-hydroxy-3,5-di-tert-butylphenoxy)ethyl]phenoxy}pentanoic acid], the IC50 in assay [1] turned out to be 770 nM. Further, the change in vivo at 200 mg/kg in assay [2] (setting [3]) is -66%; in assay [2] (setting [4]), -54%.

In the case of `CC(C)(CCCOc1cccc(CCCc2cc(C(C)(C)C)c(O)c(C(C)(C)C)c2)c1)C(=O)O` [Example 20, 2,2-dimethyl-5-{3-[3-(4-hydroxy-3,5-di-tert-butylphenyl)propyl]phenoxy}pentanoic acid], the IC50 in assay [1] amounted to 1100 nM. The change in vivo at 200 mg/kg in assay [2] (setting [3]) was -58%; in assay [2] (setting [4]), -71%.

The values are drawn from patent US5734077A, “Substituted 2,2-dimethyl-omega-phenoxyalkanoic acids and esters” (Adir ET Compagnie, priority 1995, dated 1998).
